According to patent US11066436B2, “5′-phosphorothiolate mRNA 5′-end (cap) analogs, mRNA comprising the same, method of obtaining and uses thereof” (Uniwersytet Warszawski, priority 2016, dated 2021):
“Also recorded” adds a separate entry of the source.

Tests used:
[1] = biological target: T1, human DcpS enzyme (hDcpS) (Homo sapiens, UniProt Q96C86); test: Susceptibility of cap analogs to degradation by DcpS enzyme (RP-HPLC); type: biochemical; conditions: for DcpS susceptibility: cap analog 20 μM, hDcpS 100 nM, RP-HPLC; for hydrolysis by hDcpS: tested as substrates of hDcpS, RP HPLC
T1 construct: made in house
T1 sequence (Q96C86 1-337): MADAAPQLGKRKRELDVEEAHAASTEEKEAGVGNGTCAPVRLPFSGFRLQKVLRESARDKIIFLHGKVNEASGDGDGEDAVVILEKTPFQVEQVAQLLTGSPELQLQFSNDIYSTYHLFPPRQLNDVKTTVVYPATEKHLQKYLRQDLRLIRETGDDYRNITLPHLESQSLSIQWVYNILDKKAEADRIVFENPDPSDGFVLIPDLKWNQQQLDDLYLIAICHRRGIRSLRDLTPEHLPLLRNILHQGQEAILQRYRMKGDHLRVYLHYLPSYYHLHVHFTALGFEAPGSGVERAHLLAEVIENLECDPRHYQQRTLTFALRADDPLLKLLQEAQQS
Experimental: Test 1. The Susceptibility Study of Analogs to Degradation by DcpS Enzyme.
The aim of the test was to check if new 5′-thiophosphate cap analogs are hydrolyzed by human DcpS enzyme (hDcpS). Recombinant human protein encoding DcpS enzyme was expressed as described previously (Kowalska, Lewdorowicz et al. 2008). The susceptibility of new analogs to hDcpS hydrolysis is tested in 50 mM Tris-HCl buffer containing 200 mM KCl and 0.5 mM EDTA. Reaction mixture includes the tested cap analog (20 μM) and hDcpS enzyme (100 nM) in 400 μl of buffer. At the appropriate intervals 100 μl sample is collected from the reaction mixture. Sample is incubated at 98° C. for 2.5 min, and then cooled to 0° C. and analyzed on RP-HPLC under conditions described in general informations. In tests also commercially available inhibitor of DcpS was tested, the compound RG3039 (no. 000) (https://www.mda.org/quest/fda-approves-phase-1-clinical-trial-rg3039-sma), GppSG (no. 19), GpppSG (no. 20), as well m^7GpppG (no. 0) and m^7Gpp (no. 00) as controls. Exemplary results obtained are shown on FIG. 5 and Table 5.

hDcpS enzyme = biological target: T2, hDcpS enzyme (Homo sapiens, UniProt Q96C86); test: IC50 determination for selected inhibitors of DcpS (fluorescence, m^7GMPF probe); type: biochemical; conditions: for IC50: m^7GMPF 60 μM, hDcpS 50 nM, tested compound 0-50 μM
T2 construct: made in house
T2 sequence (Q96C86 1-337): T1 sequence (Q96C86 1-337)
Experimental: Test 2. IC50 Determination for Selected Inhibitors
The buffer in this test and in the test 1 is the same. Ten mixture reactions were prepared at the same time and each of them contained a m^7GMPF (60 μM), hDcpS enzyme (50 nM) and the tested compound in concentration range between 0-50 μM in 200 μl of buffer. After appropriate time, when 30% of substrate were converted into product without inhibitor, the reaction was stopped by mixing with 100 μl of ACN. Samples of 25 μl were taken for analysis, followed by mixing with 90 μl of TBDS-fluorescein solution of concentration 2.5 μM in DMSO and incubated for 60 min. Next, 100 μl of 200 mM HEPES buffer pH=7.0 was added to the samples and the fluorescence was measured as described in general information. Based on the results, dependence of inhibitor concentration vs. fluorescence were plotted and the IC50 values were determined by fitting theoretical curve to data.

Structure (SMILES)	DcpS susceptibility [1]	hydrolysis by hDcpS [1]	IC50 (hDcpS enzyme) [nM]	inhibition of hDcpS (hDcpS enzyme; fluorescence method and fluorogenic probe)
C[n+]1cn([C@@H]2O[C@H](CSP(=O)(O)OP(=O)([S-])OP(=O)(O)SC[C@H]3O[C@@H](n4cnc5c(=O)[nH]c(N)nc54)C(O)C3O)C(O)C2O)c2nc(N)nc(O)c21 (single isomer, unassigned) [compound 33]	resistant/inhibitor	stability in the presence of DcpS enzyme	260 ± 40	
C[n+]1cn([C@@H]2O[C@H](CSP(=O)(O)OP(=O)([S-])OP(=O)(O)SC[C@H]3O[C@@H](n4cnc5c(=O)[nH]c(N)nc54)C(O)C3O)C(O)C2O)c2nc(N)nc(O)c21 (single isomer, unassigned) [compound 34]	resistant/inhibitor	stability in the presence of DcpS enzyme	51 ± 8	best inhibitory properties
C[n+]1cn([C@@H]2O[C@H](COP(=O)(O)OP(=O)([O-])SC[C@H]3O[C@@H](n4cnc5c(=O)[nH]c(N)nc54)C(O)C3O)C(O)C2O)c2nc(N)nc(O)c21 (stereo in doubt) [compound 21]	hydrolyzable	hydrolyzed		
C[n+]1cn([C@@H]2O[C@H](CSP(=O)([O-])OP(=O)(O)OC[C@H]3O[C@@H](n4cnc5c(=O)[nH]c(N)nc54)C(O)C3O)C(O)C2O)c2nc(N)nc(O)c21 (stereo in doubt) [compound 23]	resistant/inhibitor	stability in the presence of DcpS enzyme	2810 ± 510	
C[n+]1cn([C@@H]2O[C@H](COP(=O)(O)OP(=O)(O)O)[C@@H](O)[C@H]2O)c2nc(N)nc([O-])c21 [compound 00]	resistant/inhibitor		4300 ± 780	
C[n+]1cn([C@@H]2O[C@H](CSP(=O)([O-])OP(=O)(O)O)C(O)[C@@H]2O)c2nc(N)nc(O)c21 (stereo partly drawn) [compound 12]	resistant/inhibitor	stability in the presence of DcpS enzyme	1930 ± 380	
Nc1nc2c(ncn2[C@@H]2O[C@H](COP(=O)(O)OP(=O)(O)SC[C@H]3O[C@@H](n4cnc5c(=O)[nH]c(N)nc54)[C@H](O)[C@@H]3O)[C@@H](O)[C@H]2O)c(=O)[nH]1 [compound 19]	hydrolyzable		> 100000	
Nc1nc2c(ncn2[C@@H]2O[C@H](COP(=O)(O)OP(=O)(O)OP(=O)(O)SC[C@H]3O[C@@H](n4cnc5c(=O)[nH]c(N)nc54)[C@H](O)[C@@H]3O)[C@@H](O)[C@H]2O)c(=O)[nH]1 [compound 20]	hydrolyzable		> 100000	
C[n+]1cn([C@@H]2O[C@H](COP(=O)(O)OP(=O)(O)OP(=O)([O-])SC[C@H]3O[C@@H](n4cnc5c(=O)[nH]c(N)nc54)C(O)C3O)C(O)C2O)c2nc(N)nc(O)c21 (stereo partly drawn) [compound 22]	hydrolyzable	hydrolyzed		
C[n+]1cn([C@@H]2O[C@H](CSP(=O)([O-])OP(=O)(O)OP(=O)(O)OC[C@H]3O[C@@H](n4cnc5c(=O)[nH]c(N)nc54)C(O)C3O)C(O)C2O)c2nc(N)nc(O)c21 (stereo partly drawn) [compound 24]	resistant/inhibitor	resistant; also recorded: stability in the presence of DcpS enzyme	840 ± 70	
C[n+]1cn([C@@H]2O[C@H](CSP(=O)([O-])OP(=O)(O)CP(=O)(O)OC[C@H]3O[C@@H](n4cnc5c(=O)[nH]c(N)nc54)C(O)C3O)C(O)C2O)c2nc(N)nc(O)c21 (stereo partly drawn) [compound 25]	resistant/inhibitor	stability in the presence of DcpS enzyme	6250 ± 1220	
COC1C(O)[C@@H](CSP(=O)([O-])OP(=O)(O)OP(=O)(O)OC[C@H]2O[C@@H](n3cnc4c(=O)[nH]c(N)nc43)C(O)C2O)O[C@H]1n1c[n+](C)c2c(O)nc(N)nc21 (stereo partly drawn) [compound 26]	resistant/inhibitor	stability in the presence of DcpS enzyme	12600 ± 5220	
C[n+]1cn([C@@H]2O[C@H](CSP(=O)(O)OP(=O)([S-])OP(=O)(O)OC[C@H]3O[C@@H](n4cnc5c(=O)[nH]c(N)nc54)C(O)C3O)C(O)C2O)c2nc(N)nc(O)c21 (stereo partly drawn) [compound 30]	resistant/inhibitor	stability in the presence of DcpS enzyme	230 ± 40	
C[n+]1cn([C@@H]2O[C@H](CSP(=O)(O)OP(=O)([S-])OP(=O)(O)OC[C@H]3O[C@@H](n4cnc5c(=O)[nH]c(N)nc54)C(O)C3O)C(O)C2O)c2nc(N)nc(O)c21 (stereo partly drawn) [compound 31]	resistant/inhibitor	stability in the presence of DcpS enzyme	170 ± 20	
C[n+]1cn([C@@H]2O[C@H](CSP(=O)([O-])OP(=O)(O)OP(=O)(O)SC[C@H]3O[C@@H](n4cnc5c(=O)[nH]c(N)nc54)C(O)C3O)C(O)C2O)c2nc(N)nc(O)c21 (stereo partly drawn) [compound 32]	resistant/inhibitor	stability in the presence of DcpS enzyme	330 ± 90	
C[n+]1cn([C@@H]2O[C@H](COP(=O)(O)OP(=O)([S-])OP(=O)(O)SC[C@H]3O[C@@H](n4cnc5c(=O)[nH]c(N)nc54)C(O)C3O)C(O)C2O)c2nc(N)nc(O)c21 (stereo partly drawn) [compound 35]	hydrolyzable	hydrolyzed		
C[n+]1cn([C@@H]2O[C@H](COP(=O)(O)OP(=O)([S-])OP(=O)(O)SC[C@H]3O[C@@H](n4cnc5c(=O)[nH]c(N)nc54)C(O)C3O)C(O)C2O)c2nc(N)nc(O)c21 (stereo partly drawn) [compound 36]	hydrolyzable	hydrolyzed		
C[n+]1cn([C@@H]2O[C@H](COP(=O)(O)CP(=O)(O)OP(=O)([O-])SC[C@H]3O[C@@H](n4cnc5c(=O)[nH]c(N)nc54)C(O)C3O)C(O)C2O)c2nc(N)nc(O)c21 (stereo partly drawn) [compound 37]	resistant/inhibitor	resistant to hydrolysis; also recorded: stability in the presence of DcpS enzyme	5670 ± 1010	
COC1C(O)[C@@H](COP(=O)(O)OP(=O)(O)OP(=O)([O-])SC[C@H]2O[C@@H](n3cnc4c(=O)[nH]c(N)nc43)C(O)C2O)O[C@H]1n1c[n+](C)c2c(O)nc(N)nc21 (stereo partly drawn) [compound 38]	hydrolyzable	hydrolyzed	72000 ± 17000	
